Data set [1] deals with Salmonella typhimurium G46 missense histidine-auxotroph. The experiment in a line: Host mediated assay (in vivo mutagenicity), G46 indicator (Table 22). Particulars: high levels. The arrangement: species or system Salmonella typhimurium in Cox white Swiss male mice. The procedure:
Cox white Swiss male mice 25-30 grams were used in all in vivo tests.
A. Drug Administration: Appropriate solvents were used where applicable with a solvent control run within each test. […] The organisms were grown to stationary phase, then diluted with normal saline to give an inoculum near 1×10^8 organisms per milliliter. The abdominal area of the drug-treated mouse was swabbed with alcohol and two milliliters of bacterial culture were injected into the abdominal cavity of the mouse. The mice were returned to their cages for 3-4 hours.
C. Autopsy and Recovery: The mice were sacrificed individually by cervical dislocation prior to each autopsy. The abdominal areas were soaked with ethanol. The peritoneum was bared and 2.5 ml. of sterile normal saline was injected into the peritoneal cavity using a sterile (3-ml. plastic syringe with a 20-gauge needle. After insertion, the needle is turned bevel up and the saline was expelled into the cavity; while the needle remains through the peritoneum, keeping the point of the needle in sight pressed against the peritoneal wall, the abdomen of the mouse was massaged to mix contents. The saline wash was removed from the abdominal cavity back into the syringe. The needle was removed and the contents expelled into an appropriately marked tube and iced 4° C.
D. Dilution and Plating: One-ml. samples were plated at 10° dilution on all mice to determine revertants (histidine+).
A one-milliliter sample from the untreated dilutions from control animals is plated 10^-6, 10^-7, and 10^-8 dilutions with excess histidine to determine mutable population (histidine-).

Data set [2] has as its system graft versus host reaction. The experiment in a line: Graft versus host (GVH) reaction, spleen weight (Tables 20, 21). The data set is classed as in vivo, mice (C57BL donors, F1 hybrid C57BL×C3H recipients). The procedure: In this determination, […] (C57BL) mouse spleen cells are injected into mice of an F1 hybrid strain (C57BL×C3H). […] The injected cells, however, mount a reaction to the recipient's tissues due to the foreign C3H-derived antigens. As a consequence, the recipient's spleen becomes enlarged. Immunosuppressive therapy prevents or reduces this enlargement. Thus, spleen weights provide a measure of the GVH reaction and its reduction under immunosuppression.
Treated and GVH control animals receive an intraperitoneal injection of 1.2×10^9 splenic lymphocytes from the C57 donors. Spleens are weighed ten days later. Spleen weights derived from groups of recipient mice receiving genetically homologous, i.e., syngeneic cells (C57BL×C3H) provide normal control values for calculating percent inhibition in drug-treated groups. For example, mice given 13 daily topical doses of 1-(4,5,6,7-tetra-hydro-2-benzothiazolyl)-3-phenyl urea show a 62% reduction in GVH reaction relative to controls, as set forth in Table 20.
Using this procedure, three compounds from the above useful in the processes of this invention have been compared with several reference immunosuppressive drugs. Treatment levels defining the 50 percent inhibitory dose have been determined.

A further data set has as its system neoplasms in NZBxW mice. The settings on record: Casey, New Zealand Medical Journal 74,290 (1973); control 0 percent; cited from earlier work.
For data set [3], the system named is antibody to sheep red blood cells. Kind of data set: 75 percent reduction of control antibody titer in mice by subcutaneous, percutaneous and oral routes (Table 16). Particulars: Mus musculus, Erythrocyte, × 10 daily doses commencing 3 days before antigen i.v. In kind it is in vivo, male Swiss mice. On the procedure:
Subcutaneous, percutaneous, and oral activity have been achieved as indicated in Table 16 which follows employing representative compounds from the above entitled application. […] Except as indicated, the tests were performed using groups of five 20-gram male Swiss mice injected with 5×10^7 sheep red blood cells intravenously for each drug level. Ten (daily) administrations of drug were made commencing three days prior to red blood cell injection. On the day following the final treatment (7 days after red blood cell injection) the animals were bled by cardiac puncture, the sera from each five-mouse-group were pooled, and antibody titers of these serum pools and corresponding serum pools from control (untreated) mouse groups were determined. The results are expressed as the minimum drug dose effecting 75 percent reduction of control antibody titer: […]

These results are taken from patent publication US4153709A, “N-Heterocyclic ureas as immune regulants” (Eli Lilly and Company, priority 1977, dated 1979).

Where two headings read alike, the source gives them in different places.

For `Cn1cnc([N+](=O)[O-])c1Sc1ncnc2nc[nH]c12` [Azathioprine, reference compound], in data set [1], the “mutagenic potential in the host-mediated system” value is listed as “POSSIBLE MUTAGENIC POTENTIAL”. Further, the “Percent GVH Inhibition” value in data set [2] (5 mg/kg × 13, s.c.) amounted to 43%; in data set [2] (10 mg/kg × 13, s.c.), 61%. Besides, the increase in neoplasms in the data set on neoplasms in NZBxW mice is 58%. The minimal effective dose in data set [3] (sc, subcutaneous, read-out: Lowest Dose Producing 75% Immunosuppression, Subcutaneous) was 50 to 100 mg/kg; in data set [3] (oral, read-out: Lowest Dose Producing 75% Immunosuppression, Oral), 50 mg/kg; in data set [3] (percutaneous, read-out: Lowest Dose Producing 75% Immunosuppression, Percutaneous), 100 mg/kg.
